Patent publication US12060350B2, “Therapeutic compounds and methods of use thereof” (REGENTS OF THE UNIVERSITY OF MINNESOTA, priority 2018, dated 2024)

System: human whole blood
Assay: IFN-α/β, IFN-γ, and TNF-α/IL-1β whole blood reporter gene assays (cytokine release)
Assay type: cell-based
Conditions: FIG. 4
Protocol: IFN-α/β, IFN-γ, and TNF-α/IL-1β Whole Blood Reporter Gene Assays. Whole heparinized blood is collected from consenting individuals, as approved by the University of Minnesota Institutional Review Board, and is diluted 1:2 in RPMI supplemented with 10% fetal bovine serum (FBS). Forty microliters is added to 384-well, flat-bottomed, cell culture-treated microtiter plates containing serial dilutions of compounds. Following incubation at 37° C. for 24 h, […] of supernatant is transferred to separate 384-well plates using a liquid handler equipped with liquid level sensing in order to avoid disturbing the erythrocyte-rich pellet. Forty microliters of HEK-IFNα/β, HEK-IFNγ, or HEK-TNFα/IL-β cytokine reporter cells (InvivoGen, San Diego, CA) harvested at a density of 1×10^6 cells/mL in DMEM with 10% FBS is added to the supernatant plates and incubated at 37° C. for 24 h. […] Sigmoidal dose-response profiles for each cytokine are observed (Beesu M. et al. J. Med. Chem. 2017, 2084), from which threshold cytokine concentrations corresponding to maximal responses for each cytokine reporter cell line are recorded. […]

## CCCCc1nc2c(N)nc3ccccc3c2n1Cc1cc(C)c(O)c(CN)c1 [Compound 29, 4-((4-Amino-2-butyl-1H-imidazo[4,5-c]quinolin-1-yl)methyl)-2-(aminomethyl)-6-methylphenol]
  cytokine release in human whole blood: can induce cytokine release strongly
